Measured values published in patent US8987217B2, “Modified saponins for the treatment of fungal infections” (The General Hospital Corporation, priority 2010, dated 2015).
Converted amounts (≈) assume the structure as drawn.

How the values were obtained:
C. albicans = test: C. elegans-C. albicans co-inoculation assay, nematode survival; assay type: in vivo
Protocol: The procedure for the co-inoculation antifungal compound screen were conducted as previously described (Okoli et al., PLoS ONE, 4:e7025 (2009); Tampakakis et al., Nat Protocols, 3:1925-1931 (2008)), using the C. albicans strain DAY185 (Davis et al., Infect Immun, 68:5953-5959 (2000)) and the C. elegans glp-4;sek-1 double mutant.
This assay allows simultaneous assessment of a compound's potential toxicity and the ability to promote the survival of the nematode in the presence of C. albicans, including modes of action not traditionally considered in antifungal assays such as impeding a fungal virulence factor or promoting host immune response. We performed a screen of 2,560 natural products representing a fraction of the Analyiticon Discovery compound collection (ac-discovery.com) housed at the Broad Institute of Harvard and MIT (Cambridge, Mass.). […] These natural products identified in the primary screen were retested and confirmed (FIG. 1; Table 1). […] Moreover, although the antifungal effects of some of these saponins have been reported (Sata et al., Biosci Biotechnol Biochem, 62:1904-1911 (1998); Ohtani et al., Phytochem, 33:83-86 (1993)), their efficacy against Candida spp. has not been studied.
After confirmation of these hits, dose response experiments were conducted to determine the concentration that provided maximum nematode survival. The compounds conferred a range of nematode survival from 27% (compound A6) to 93% (compounds A2, A7, A24, and A25), however, with the exception of A6, all compounds conferred a nematode survival over 65% (FIG. 1).

C. albicans DAY185 = test: NaCl induced osmotic stress growth assay; assay type: cell-based; conditions: 2 μg/mL A16; untreated control 1.25 M
Protocol: Caspofungin (Merck) served as a known antifungal compound control. In vitro hyphal inhibition was assessed by incubation of DAY185 in RPMI 1640 media at 37° C. After 48 hours the cultures were visually inspected for hyphal formation by microscopy. The ability of the antifungal compound A16, at either 2 or 4 μg/mL, to induce osmotic stress was assessed using DAY185 grown in a 96 well microtiter plate containing RPMI 1640 media and NaCl, ranging in concentrations from 0-2 M in 0.25 M increments. The growth of the fungus was measured spectrophotometrically after 48 hours of growth at 35° C.
The C. albicans cell wall and membrane are important for osmoregulation to maintain proper physiological conditions to carryout enzymatic reactions. Since saponins are able to disrupt the fungal cell membrane, external osmotic stress should also have detrimental effects on the fungal cell. C. albicans was grown in the presence of 2 μg/mL of compound A16 under various salt concentrations to assess the effect the saponin has on salt induced osmotic stress.

C. albicans cells = test: photosensitizer uptake by fluorescence spectrofluorimetry; assay type: cell-based; conditions: addition of A16 to RB, ce6, PEI-ce6
Protocol: In order to confirm that the increase in phototoxicity observed by combining the different PS with A16 is actually due to an increase of cellular uptake of the PS by the cells and to document that the antifungal efficacy of saponins against C. albicans is associated with increased permeability, the amount of dye within the cell was measured by fluorescence spectrofluorimetry.
Cell suspensions (10^8 cells/mL) were incubated in the dark as above using the same concentrations as for the PDI assays measured as μM PS equivalent (final concentration in incubation medium). Incubations were carried out in triplicate. Cell suspensions were centrifuged (12000 rpm, 1 min) and washed twice in 1 mL sterile PBS. The cell pellet was dissolved in 1.5 mL 0.1 M NaOH/1% SDS for 24 h to yield a homogenous solution. Uptake was determined by measurement of fluorescence in black 96-well flat-bottom plates (Costar) in a final volume of 200 μL using a Spectramax Gemini spectrofluorimeter (Molecular Devices) at 400 nmex/580-700 nmem for ce6, PEI-ce6 and 552 nmex/555-620 nmem for RB. Uptake values were obtained as previously described (Tegos et al., Antimicrob Agents Chemother, 50:196-203(2006)).
The cellular uptake of dye can be expressed as molecules per cell by correlation of the extracted PS concentration with the number of C. albicans cells present.

CC1CC[C@@]2(OC1)O[C@H]1CC3C4C[C@@H](O)C5C[C@@H](O[C@@H]6O[C@H](CO)[C@H](O[C@@H]7O[C@H](CO)[C@@H](O)[C@H](O[C@@H]8OC[C@@H](O)[C@H](O)[C@H]8O)[C@H]7O[C@@H]7O[C@H](CO)[C@@H](O)[C@H](O)[C@H]7O)[C@H](O)[C@H]6O)[C@H](O)C[C@]5(C)C4CC[C@]3(C)[C@H]1[C@@H]2C (stereo partly shown) [A16, Aginoside]
maximum nematode survival (C. albicans; dose response, C. albicans-infected C. elegans): 67%
EC50 in vivo (C. albicans; dose that resulted in 50% survival of C. albicans-infected nematodes): 47.0 µg/mL (≈ 44 µM)
NaCl concentration at which the fungus was unable to grow (C. albicans DAY185): 0.5 M
effect on uptake of PS by the cells (C. albicans cells): dramatically increased the uptake of PS
